# Reference: patent US6559139B1, “Combination chemotherapy” (University of Pittsburgh of the Commonwealth System of …, priority 1997, dated 2003)
# Tests used:
# [1] = serum calcium levels in normal mice treated with 1,25D3 with or without zoledronate
# Method: Normal C3H/HeJ mice were pretreated with 10 μg/kg body weight zoledronate and then treated with 0.25 μg 1,25D3 once a day for three days. Control animals received 1,25D3 alone, and one group of animals received only zoledronate. Following the last 1,25D3 treatment, blood was collected at 0, 24 and 48 hours from each mouse, and the serum calcium levels were measured.
# [2] = hypercalcemia in treated SCCVII/SF tumor-bearing animals; format: in vivo, C3H/HeJ mice
# [3] = system: MKP-1 (a MAPK-specific phosphatase); experiment: Western Blot of MKP-1 in SCC cells; format: cell-based; conditions: 10 nM 1,25D3; vs untreated cells
# Method: (§1) SCC cells were treated in vitro with 10 nM 1,25D3, and untreated cells served as a control. The level of phosphorylated MAPK was assessed at 24 and 48 hours post treatment. Using Western Blot analysis, the amounts of MAPK, MEK (the kinase responsible for phosphorylating MAPK), MKP-1 (a MAPK-specific phosphatase), and growth factor receptors (EGF, PDGF, and IGF1 growth factor receptors) were assessed as well. Additionally, the activity level of MEK was assessed by quantitative in vitro kinase assays.
# SCCVII/SF tumor [4] = experiment: tumor regrowth assay (delay of tumor growth); format: in vivo, C3H/HeJ mice; conditions: for fractional tumor volume: vs either agent alone; for Tumor Regrowth Delay: mean±SD of the difference in time for treated and control tumors to reach 4× pretreatment size, Ro23-7553 continuous, cisplatin 6 mg/kg i.p.
# Method: SCCVII/SF tumor cells (5×10^5) were inoculated s.c. into the flank of the leg of C3H/HeJ mice. On day 9 post implantation, as the tumors were palpable (approximately 5×5 mm), animals were randomized for treatment with low dose i.p. […] After 7 days, 6 mg/kg body weight cytotoxic agent was injected i.p. Control animals received either treatment alone or no treatment. Control (no treatment) animals were given injection of vehicle (PBS) alone or sham pumps were implanted. Tumor growth was assessed by measuring the tumor diameter with calipers three times weekly. […] Post-treatment volumes were expressed as a fraction of pretreatment volume at the time of initial treatment. Tumor regrowth delay was calculated as the mean±standard deviation of the difference in time for treated and control tumor volumes to reach 4 times the pretreatment volume.
# SCCVII/SF cells [5] = conditions: 24 hr, 48 hr and 7 day incubation times; cited from earlier work
# SCCVII/SF tumor [6] = experiment: in vivo excision clonogenic tumor cell survival assay; parameters: species or system C3H/HeJ mice; conditions: for enhancement of clonogenic cell kill: p<0.001 ANOVA
# Method: The effect of 1,25D3 or Ro23-7553 alone and/or in combination with various cytotoxic agents on tumor cells in vivo was determined by a modification of the in vivo excision clonogenic tumor cell survival assay (Johnson et al., Cancer Chemother. Pharmacol., 32, 339-46 (1993)). Briefly, SCCVII/SF tumor bearing animals at 14 days post implantation were treated i.p. for 3 days with 1,25D3 or Ro23-7553 at either 0.5 mg/kg body weight/day or at varying doses of 0.03125-0.5 mg/kg body weight/day. […] After 24 hours, aliquots of minced tumor were enzymatically dissociated for 60 min at room temperature with a mixture of type I collagenase (37.5 mg/ml), DNAse (55 mg/ml) and EDTA (1%). Viable tumor cells (determined by trypan blue staining) were then plated at various dilutions. After 7 days incubation, colonies were counted, and numbers of clonogenic cells per gram of tumor were counted. The mean±standard deviation (SD) cell yield, cloning efficiency, and number of clonogenic cells for control (no treatment) tumors (n=40) averaged 139.4±38.2×10^6 viable tumor cells/g tumor, 27.0±0.56%, and 37.5±13.3×10^6 clonogenic tumor cells/g tumor, respectively. The surviving fraction per gram of tumor is defined as the number of clonogenic tumor cells per gram of treated tumor divided by the number of clonogenic tumor cells per gram of control (untreated) tumor. This assay is an accurate measure of in vivo anti-tumor activity; a surviving fraction less than 0.1 correlates with an actual decrease in tumor volume and an increase in tumor regrowth delay (Braunschweiger et al., Cancer Res., 48, 6011-16 (1988); Braunschweiger et al., Cancer Res., 51, 5454-60 (1991)).
# MEK [7] = experiment: quantitative in vitro kinase assay of MEK activity; format: cell-based; conditions: 10 nM 1,25D3; vs untreated cells
# Method: as §1
# SCCVII/SF cells [8] = experiment: in vitro clonogenic assay; format: cell-based, murine; conditions: for enhancement of clonogenic cell kill: p<0.001 ANOVA
# Method: The in vitro cytotoxicity of drug on tumor cells was determined via the in vitro clonogenic assay (McElwain et al., Mol. Cell. Diff., 3, 31-50 (1995)) with minor modifications as described herein. Briefly, murine SCCVII/SF cells were pre-treated with either 2 nM or 4 nM 1,25D3 or Ro23-7553. […] After 48 hours incubation with 1,25D3 or Ro23-7553, cells were treated for 2 hours with varying concentrations of cytotoxic agent, washed with RPMI 1640 plus FCS, and plated in various dilutions in 6-well tissue culture plates. Following a 7 day incubation at 37° C. in 5% CO2, monolayers were washed with saline, fixed with 100% methanol, and stained with 10% Giemsa; colonies were counted under light microscopy. The surviving fraction was calculated by dividing the cloning efficiency of treated cells by the cloning efficiency of untreated controls.
# [9] = system: EGF, PDGF, and IGF1 growth factor receptors; experiment: Western Blot of growth factor receptors in SCC cells; format: cell-based; conditions: 10 nM 1,25D3; vs untreated cells
# Method: as §1
# MEK [10] = experiment: Western Blot of MEK protein in SCC cells; format: cell-based; conditions: 10 nM 1,25D3; vs untreated cells
# Method: as §1
# MAPK = experiment: Western Blot of phosphorylated MAPK and MAPK in SCC cells; format: cell-based; conditions: 10 nM 1,25D3, vs untreated cells
# Method: as §1
# [11] = clinical carboplatin / 1,25D3 schedule: carboplatin AUC and myelosuppression; format: in vivo, human; conditions: for mean AUC of carboplatin: dose calculated to achieve AUC=5, ±1.3
# Method: Patients with malignant tumors were subject to a treatment regimen involving carboplatin and 1,25D3, but 48 hours prior to treatment, each patient was placed on a low calcium diet (250-300 mg/48 hr) and maintained on that diet for at least 7 days.
# According to this regimen, each cycle lasts four weeks. For successive cycles, the dosage of 1,25D3 is increased by 30%. For the first two cycles, the patients were divided into two groups as follows:
# Group 1. On day 1, this group of patients was given carboplatin (intravenously as a 30-minute infusion in 100 ml of carrier) at a dose calculated to achieve AUC=5. 24 hours later, a plasma sample was taken to determine carboplatin AUC, and the patients were placed on a three-day regimen of subcutaneous 1,25D3 per the schedule indicated in Table 2.
# Group 2. On day 1, this group of patients was placed on a three-day regimen of subcutaneous 1,25D3. On day 3, the patients were given carboplatin at a dose calculated to achieve AUC=5. 24 hours later, a plasma sample was taken to determine carboplatin AUC.
# Following the first cycle, the groups switched between pretreatment and post treatment. For the third and subsequent cycles in this treatment, the patients were placed on a three-day regimen of subcutaneous 1,25D3. On day 3, the patients were given carboplatin. at a dose calculated to achieve AUC=5. 24 hours later, a plasma sample was taken to determine carboplatin AUC.
# Following the first two cycles, patients were assessed to determine the effect on carboplatin AUC by pretreatment vs. post treatment with 1,25D3.
compound,measurement,setting,value
O=P(O)(O)C(O)(Cn1ccnc1)P(=O)(O)O [zoledronate],"dehydration, piloerection, and cachexia attributable to hypercalcemia","[1]; vs control animals (1,25D3 alone)","less dehydration, piloerection, and cachexia"
"C=C1/C(=C\C=C2/CCC[C@]3(C)[C@@H]([C@H](C)CCCC(C)(C)O)CC[C@@H]23)C[C@@H](O)C[C@@H]1O [1,25D3, 1,25-dihydroxycholecalciferol]",hypercalcemia,"[2]; 1,25D3 0.2 μg/day 3 days with paclitaxel",No animals became hypercalcemic
same,hypercalcemia,"[2]; any of the 1,25D3 doses tested, with carboplatin 50 mg/kg",No animals became hypercalcemic
same,serum calcium levels,"[1]; 24 hours after last 1,25D3 treatment (0.25 μg once a day, three days)",17.2 ± 1.1 mg/dL
same,serum calcium levels,"[1]; 48 hours after last 1,25D3 treatment (0.25 μg once a day, three days)",16.5 ± 1.1 mg/dL
same,amount of MKP-1,[3],higher amounts of MKP-1
same,fractional tumor volume,"SCCVII/SF tumor [4]; 0.2 μg/mouse 1,25D3 continuously for two to eight days, then paclitaxel 40 mg/kg i.p.",significant decrease in fractional tumor volume
same,anti-proliferative effects,SCCVII/SF cells [5],anti-proliferative effects are observed
same,enhancement of clonogenic cell kill,"SCCVII/SF tumor [6]; 1,25D3 0.2 μg/day i.p. 3 days, varying doses of paclitaxel on day 3, vs paclitaxel alone",significant enhancement of clonogenic cell kill
same,enhancement of clonogenic cell kill,"SCCVII/SF tumor [6]; 1,25D3 0.5 mg/kg body weight/day i.p. 3 days, carboplatin 25-100 mg/kg on day 3, vs either alone",significant enhancement of clonogenic cell kill
same,enhancement of clonogenic cell kill,"SCCVII/SF tumor [6]; 1,25D3 varying doses i.p. 3 days, carboplatin 50 mg/kg on day 3, vs carboplatin alone","significant enhancement of clonogenic cell even at the lowest doses of 1,25D3"
same,MEK activity profile,MEK [7],not significantly different
same,enhancement of clonogenic cell kill over paclitaxel alone,"SCCVII/SF cells [8]; concurrent administration of 1,25D3 and paclitaxel",did not result in an enhancement of clonogenic cell kill
same,enhancement of clonogenic cell kill,"SCCVII/SF cells [8]; pretreatment with 2 nM 1,25D3 for 48 hours, then carboplatin, vs carboplatin alone or concurrent",significantly enhanced clonogenic cell kill
same,enhancement of clonogenic cell kill,"SCCVII/SF cells [8]; pretreatment with 1,25D3, then paclitaxel",significantly enhanced clonogenic cell kill
same,"amounts of EGF, PDGF, and IGF1 growth factor receptors",[9],significantly higher amounts
same,amount of MEK protein,MEK [10],slightly less MEK protein
same,level of phosphorylated MAPK,MAPK; 24 and 48 hours,less phosphorylated MAPK
same,amount of MAPK protein,MAPK,not affected
N.N.O=C([O-])C1(C(=O)[O-])CCC1.[Pt+2] [carboplatin],mean AUC of carboplatin,[11]; carboplatin D1,7800 ng·h/mL
same,mean AUC of carboplatin,[11]; carboplatin D3,6700 ng·h/mL
same,myleosuppression,"[11]; carboplatin followed by adjunctive 1,25D3, each patient",consistently less
same,"AUC of carboplatin when pretreated with 1,25D3 vs carboplatin given first","[11]; each patient, first two cycles",higher in each patient
"N.N.[Cl][Pt][Cl] [Cisplatin, cisplatin]",Tumor Regrowth Delay,SCCVII/SF tumor [4],4.4 ± 0.3
"C=C1/C(=C\C=C2/CCC[C@]3(C)C([C@H](C)CC#CC(C)(C)O)=CC[C@@H]23)C[C@@H](O)C[C@@H]1O [Ro23-7553, 1,25-dihydroxy-16-ene-23-yne-cholecalciferol]",hypercalcemia,"[2]; any of the Ro23-7553 doses (0.03125-0.5 mg/kg/day, 3 days) with cisplatin",No animals in either experimental approach became hypercalcemic
same,fractional tumor volume,"SCCVII/SF tumor [4]; Ro23-7553 administered continuously, then cisplatin 6 mg/kg i.p., p<0.001 ANOVA",significant decrease in fractional tumor volume
same,Tumor Regrowth Delay,SCCVII/SF tumor [4],1.8 ± 0.8
same,anti-proliferative effects,SCCVII/SF cells [5],anti-proliferative effects are observed
same,enhancement of clonogenic cell kill,"SCCVII/SF tumor [6]; Ro23-7553 0.5 mg/kg body weight/day i.p. 3 days, varying doses of cisplatin on day 3, vs cisplatin or Ro23-7553 alone",significant enhancement of clonogenic cell kill
same,enhancement of cisplatin-mediated tumor cell kill,"SCCVII/SF tumor [6]; Ro23-7553 0.03125-0.5 mg/kg body weight/day 3 days, cisplatin 6 mg/kg on day 3, vs either alone, p<0.01 ANOVA",significantly enhancing cisplatin-mediated tumor cell kill even at the lowest doses tested
same,enhancement of clonogenic cell kill,"SCCVII/SF cells [8]; pretreatment with 2 nM and 4 nM Ro23-7553, then 0.2-0.8 μg/ml cisplatin, vs cisplatin alone or concurrent administration",significantly enhanced clonogenic cell kill
